≈ marks a conversion by molar mass, not a printed value.
Legend:
[1] = tested on: Mycobacterium tuberculosis; experiment: Antimycobacterial activity against Mycobacterium tuberculosis; format: functional
Vero [2] = experiment: Selectivity index (CC50/MIC90); format: functional
Vero [3] = experiment: Cytotoxicity against Vero cells by MTT assay; format: functional; conditions: Chlorocebus sabaeus
[4] = tested on: Mycobacterium tuberculosis; experiment: Activity against Mycobacterium tuberculosis ATCC 35801 in lungs of CD1 mice at 100 mg/kg; format: functional, Lung
[5] = tested on: Mycobacterium tuberculosis; experiment: Activity against Mycobacterium tuberculosis ATCC 35801 in spleen of CD1 mice at 100 mg/kg; format: functional

O=C(NCN1CCN(c2ncccn2)CC1)c1cnccn1
MIC90 [1]: > 12.5 µg/mL

O=C(NCN1CCN(c2ccc(Cl)cc2)CC1)c1cnccn1
MIC90 [1]: 3.12 µg/mL (≈ 9.4 µM)

O=C(NCN1CCN(c2ccc(C(F)(F)F)cc2)CC1)c1cnccn1
Selectivity index (Vero [2]): >80 | MIC90 [1]: 0.78 µg/mL (≈ 2.13 µM) | CC50 (Vero [3]): > 62.5 µg/mL

O=C(NCN1CCN(c2ccccn2)CC1)c1cnccn1
MIC90 [1]: 12.5 µg/mL (≈ 41.9 µM)

O=C(NCN1CCN(c2ccc(F)cc2)CC1)c1cnccn1
Selectivity index (Vero [2]): >40 | MIC90 [1]: 1.76 µg/mL (≈ 5.58 µM) | CC50 (Vero [3]): > 62.5 µg/mL

CCn1cc(C(=O)O)c(=O)c2cc(F)c(N3CCN(CNC(=O)c4cnccn4)CC3)cc21
Selectivity index (Vero [2]): >40 | MIC90 [1]: 1.76 µg/mL (≈ 3.87 µM) | CC50 (Vero [3]): > 62.5 µg/mL

O=C(NCN1CCN(c2ccc([N+](=O)[O-])cc2)CC1)c1cnccn1
MIC90 [1]: 6.25 µg/mL (≈ 18.3 µM)

COc1ccccc1N1CCN(CNC(=O)c2cnccn2)CC1
MIC90 [1]: 12.5 µg/mL (≈ 38.2 µM)

O=C(NCN1CCN(c2ccccc2)CC1)c1cnccn1
MIC90 [1]: 6.25 µg/mL (≈ 21 µM)

CN1CCN(CNC(=O)c2cnccn2)CC1
Log10 cfu [4]: 6.02 | Log10 cfu [5]: 7.18 | MIC90 [1]: 12.5 µg/mL (≈ 53.1 µM)

O=C(NCN1CCN(c2cccc(Cl)c2)CC1)c1cnccn1
MIC90 [1]: 3.12 µg/mL (≈ 9.4 µM)

COc1ccc(N2CCN(CNC(=O)c3cnccn3)CC2)cc1
MIC90 [1]: 12.5 µg/mL (≈ 38.2 µM)

COc1cccc(N2CCN(CNC(=O)c3cnccn3)CC2)c1
MIC90 [1]: 12.5 µg/mL (≈ 38.2 µM)

O=C(NCN1CCN(Cc2ccccc2)CC1)c1cnccn1
MIC90 [1]: 6.25 µg/mL (≈ 20.1 µM)

CCn1cc(C(=O)O)c(=O)c2cc(F)c(N3CCN(CNC(=O)c4cnccn4)CC3)c(F)c21
Selectivity index (Vero [2]): >80 | MIC90 [1]: 0.78 µg/mL (≈ 1.65 µM) | CC50 (Vero [3]): > 62.5 µg/mL

NC(=O)c1cnccn1 [PYRAZINAMIDE]
MIC90 [1]: 12.5 µg/mL (≈ 102 µM)

O=C(NCN1CCN(c2cc3c(cc2F)c(=O)c(C(=O)O)cn3C2CC2)CC1)c1cnccn1
Selectivity index (Vero [2]): >20 | MIC90 [1]: 3.13 µg/mL (≈ 6.71 µM) | CC50 (Vero [3]): > 62.5 µg/mL

COc1c(N2CCN(CNC(=O)c3cnccn3)C(C)C2)c(F)cc2c(=O)c(C(=O)O)cn(C3CC3)c12 (stereo unspecified)
Selectivity index (Vero [2]): >160 | CC50 (Vero [3]): > 62.5 µg/mL
